Test results reported in US20260034124A1, “NOVEL SALTS AND CRYSTALS” (INTRA-CELLULAR THERAPIES, INC., priority 2022, published 2026).
Read-outs that look alike come from different tables or passages of the source.

What was measured:
[1] = Aqueous solubility determination, saturated solution shaken in water, LC; type: physicochemical; conditions: slurried 24 hours, filtered
Procedure: The aqueous solubility of the successfully reproduced salts is determined by shaking a saturated solution in water. The solubility at pH 7.4 is determined by shaking a saturated solution in a phosphate buffered system. The samples are prepared by the addition of a known amount of water (100-200 μl) and subsequent slurrying with the solid for 24 hours. All samples are then filtered using syringe filters to remove undissolved solids, and then the filtrates are diluted with methanol/acetonitrile (1:1 v/v). LC analysis of the samples is performed, and a calibration line is used for the determination of the solubilities.

[2] = target: H1 histaminergic (Homo sapiens, UniProt P35367); conditions: cited from earlier work
H1 histaminergic, sequence (P35367 whole entry): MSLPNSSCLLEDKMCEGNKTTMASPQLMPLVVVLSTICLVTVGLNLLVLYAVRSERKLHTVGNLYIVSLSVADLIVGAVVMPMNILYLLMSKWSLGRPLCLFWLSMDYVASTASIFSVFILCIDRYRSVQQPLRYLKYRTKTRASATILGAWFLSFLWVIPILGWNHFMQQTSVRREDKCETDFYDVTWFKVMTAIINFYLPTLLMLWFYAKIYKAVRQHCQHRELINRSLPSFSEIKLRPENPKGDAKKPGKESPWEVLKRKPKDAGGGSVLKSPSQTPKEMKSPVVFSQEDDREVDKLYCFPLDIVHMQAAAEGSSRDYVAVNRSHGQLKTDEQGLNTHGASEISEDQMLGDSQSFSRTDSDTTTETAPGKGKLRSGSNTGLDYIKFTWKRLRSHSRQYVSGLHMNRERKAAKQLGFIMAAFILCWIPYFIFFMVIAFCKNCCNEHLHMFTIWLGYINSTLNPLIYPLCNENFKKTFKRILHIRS

[3] = system: muscarinic; conditions: cited from earlier work
[4] = free base form, cited from earlier work
[5] = target: T1, 5-HT2C (Homo sapiens, UniProt P28335); conditions: cited from earlier work
T1 sequence (P28335 33-458): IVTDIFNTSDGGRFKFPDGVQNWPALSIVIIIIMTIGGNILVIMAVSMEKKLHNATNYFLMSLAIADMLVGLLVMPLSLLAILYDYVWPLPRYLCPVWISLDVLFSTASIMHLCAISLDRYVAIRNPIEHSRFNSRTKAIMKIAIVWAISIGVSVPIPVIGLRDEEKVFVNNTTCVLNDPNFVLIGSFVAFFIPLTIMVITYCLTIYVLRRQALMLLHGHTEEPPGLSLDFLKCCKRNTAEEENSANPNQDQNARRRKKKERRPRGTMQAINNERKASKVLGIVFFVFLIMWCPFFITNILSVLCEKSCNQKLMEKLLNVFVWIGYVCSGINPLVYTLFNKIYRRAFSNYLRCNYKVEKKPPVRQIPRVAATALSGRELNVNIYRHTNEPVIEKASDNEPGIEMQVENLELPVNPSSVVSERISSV

Row | SMILES | Aqueous Solubility [1] [µg/mL] | other results
1 | CCCCCCCCc1ccc(S(=O)(=O)O)cc1.CN1CCN2c3c(cccc31)[C@@H]1CN(CCCC(=O)c3ccc(F)cc3)CC[C@@H]12 [4-octylbenzenesulfonate salt, lumateperone 4-octylbenzenesulfonate salt] | 6 | 
2 | CC(C)(C)c1ccc(S(=O)(=O)O)cc1.CN1CCN2c3c(cccc31)[C@@H]1CN(CCCC(=O)c3ccc(F)cc3)CC[C@@H]12 [4-t-butylbenzenesulfonate salt, lumateperone 4-tert-butylbenzenesulfonate salt] | 770 | 
3 | CCCc1ccc(S(=O)(=O)O)cc1.CN1CCN2c3c(cccc31)[C@@H]1CN(CCCC(=O)c3ccc(F)cc3)CC[C@@H]12 [Example 4, lumateperone 4-propylbenzenesulfonate salt] | 1620 | 
4 | CCCCCS(=O)(=O)O.CN1CCN2c3c(cccc31)C1CN(CCCC(=O)c3ccc(F)cc3)CCC12 (stereo not shown) [Example 8, lumateperone pentane-1-sulfonic salt] | 18770 | 
5 | CCCCCCCS(=O)(=O)O.CN1CCN2c3c(cccc31)C1CN(CCCC(=O)c3ccc(F)cc3)CCC12 (stereo not shown) [Example 9, lumateperone heptane-1-sulfonic salt] | 4300 | 
6 | CN1CCN2c3c(cccc31)[C@@H]1CN(CCCC(=O)c3ccc(F)cc3)CC[C@@H]12 [Lumateperone, 4-((6bR,10aS)-3-methyl-2,3,6b,9,10,10a-hexahydro-1H-pyrido[3′,4′: 4,5]pyrrolo[1,2,3-de]quinoxalin-8(7H)-yl)-1-(4-fluorophenyl)-1-butanone] |  | binding to H1 histaminergic receptors [2]: negligible binding; binding to muscarinic receptors [3]: negligible binding; aqueous solubility of free base (in words) ([4]; listed as ITI-007): poor aqueous solubility; aqueous solubility of free base (in words) ([4]; listed as Lumateperone free base): very low water-solubility; binding to 5-HT2C receptors [5]: negligible binding
